Measurements taken from the NIST ThermoML archive (doi:10.1016/j.tca.2010.12.008).
Numbers after ± are expanded uncertainties.

Details: Crystal 2; visual observation

CC(C)(C)P(=O)(O)C(C)(C)C [di-tert-butylphosphinic acid]
Triple point temperature: 37.8 ± 0.5 K
